Experimental data reported in patent US9586951B2 (FUJIFILM Corporation, priority 2013, dated 2017).

Tests used:
[1] = tested on: human non-small cell lung cancer cell line NCI-H460; experiment: Cell proliferation inhibition test by sensitivity-enhancing to ionizing radiation (Cell Titer Glo); format: cell-based; settings: Homo sapiens, NCI-H460, 120 h, concentration in which SER became 2; NCI-H460 cells, ionizing radiation 2 Gy, cultured 120 hour
Summary of the method: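 Cells seeded at 2×10^3 cells/mL in RPMI-1640 with 10% FBS; after 24 h, compound added (0.1% DMSO), and 30 min later half the plates irradiated at 2 Gy. After 120 hour at 37° C, viability by Cell Titer Glo luminescence; SER2 is the concentration giving SER of 2 by sigmoidal fit.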

ATM = biological target: T1, ATM (Homo sapiens, UniProt Q13315); experiment: ATM inhibition test (phosphorylation of Chk2 generated by ionizing radiation, AlphaScreen SureFire); format: cell-based; settings: phosphorylated Chk2 in NCI-H460 cells, ionizing radiation 8Gy, 1 hour after test compound treatment; read-out: ATM inhibitory activity
T1 construct: detecting phosphorylation of Chk2 in a human non-small cell lung cancer cell line NCI-H460 (ATCC company); host or cells: NCI-H460 human non-small cell lung cancer cells
Summary of the method: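 In NCI-H460 cells, radiation-triggered Chk2 phosphorylation (8Gy, 1 h) is detected by AlphaScreen SureFire following 1 h compound exposure.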

T1 sequence (Q13315 whole entry): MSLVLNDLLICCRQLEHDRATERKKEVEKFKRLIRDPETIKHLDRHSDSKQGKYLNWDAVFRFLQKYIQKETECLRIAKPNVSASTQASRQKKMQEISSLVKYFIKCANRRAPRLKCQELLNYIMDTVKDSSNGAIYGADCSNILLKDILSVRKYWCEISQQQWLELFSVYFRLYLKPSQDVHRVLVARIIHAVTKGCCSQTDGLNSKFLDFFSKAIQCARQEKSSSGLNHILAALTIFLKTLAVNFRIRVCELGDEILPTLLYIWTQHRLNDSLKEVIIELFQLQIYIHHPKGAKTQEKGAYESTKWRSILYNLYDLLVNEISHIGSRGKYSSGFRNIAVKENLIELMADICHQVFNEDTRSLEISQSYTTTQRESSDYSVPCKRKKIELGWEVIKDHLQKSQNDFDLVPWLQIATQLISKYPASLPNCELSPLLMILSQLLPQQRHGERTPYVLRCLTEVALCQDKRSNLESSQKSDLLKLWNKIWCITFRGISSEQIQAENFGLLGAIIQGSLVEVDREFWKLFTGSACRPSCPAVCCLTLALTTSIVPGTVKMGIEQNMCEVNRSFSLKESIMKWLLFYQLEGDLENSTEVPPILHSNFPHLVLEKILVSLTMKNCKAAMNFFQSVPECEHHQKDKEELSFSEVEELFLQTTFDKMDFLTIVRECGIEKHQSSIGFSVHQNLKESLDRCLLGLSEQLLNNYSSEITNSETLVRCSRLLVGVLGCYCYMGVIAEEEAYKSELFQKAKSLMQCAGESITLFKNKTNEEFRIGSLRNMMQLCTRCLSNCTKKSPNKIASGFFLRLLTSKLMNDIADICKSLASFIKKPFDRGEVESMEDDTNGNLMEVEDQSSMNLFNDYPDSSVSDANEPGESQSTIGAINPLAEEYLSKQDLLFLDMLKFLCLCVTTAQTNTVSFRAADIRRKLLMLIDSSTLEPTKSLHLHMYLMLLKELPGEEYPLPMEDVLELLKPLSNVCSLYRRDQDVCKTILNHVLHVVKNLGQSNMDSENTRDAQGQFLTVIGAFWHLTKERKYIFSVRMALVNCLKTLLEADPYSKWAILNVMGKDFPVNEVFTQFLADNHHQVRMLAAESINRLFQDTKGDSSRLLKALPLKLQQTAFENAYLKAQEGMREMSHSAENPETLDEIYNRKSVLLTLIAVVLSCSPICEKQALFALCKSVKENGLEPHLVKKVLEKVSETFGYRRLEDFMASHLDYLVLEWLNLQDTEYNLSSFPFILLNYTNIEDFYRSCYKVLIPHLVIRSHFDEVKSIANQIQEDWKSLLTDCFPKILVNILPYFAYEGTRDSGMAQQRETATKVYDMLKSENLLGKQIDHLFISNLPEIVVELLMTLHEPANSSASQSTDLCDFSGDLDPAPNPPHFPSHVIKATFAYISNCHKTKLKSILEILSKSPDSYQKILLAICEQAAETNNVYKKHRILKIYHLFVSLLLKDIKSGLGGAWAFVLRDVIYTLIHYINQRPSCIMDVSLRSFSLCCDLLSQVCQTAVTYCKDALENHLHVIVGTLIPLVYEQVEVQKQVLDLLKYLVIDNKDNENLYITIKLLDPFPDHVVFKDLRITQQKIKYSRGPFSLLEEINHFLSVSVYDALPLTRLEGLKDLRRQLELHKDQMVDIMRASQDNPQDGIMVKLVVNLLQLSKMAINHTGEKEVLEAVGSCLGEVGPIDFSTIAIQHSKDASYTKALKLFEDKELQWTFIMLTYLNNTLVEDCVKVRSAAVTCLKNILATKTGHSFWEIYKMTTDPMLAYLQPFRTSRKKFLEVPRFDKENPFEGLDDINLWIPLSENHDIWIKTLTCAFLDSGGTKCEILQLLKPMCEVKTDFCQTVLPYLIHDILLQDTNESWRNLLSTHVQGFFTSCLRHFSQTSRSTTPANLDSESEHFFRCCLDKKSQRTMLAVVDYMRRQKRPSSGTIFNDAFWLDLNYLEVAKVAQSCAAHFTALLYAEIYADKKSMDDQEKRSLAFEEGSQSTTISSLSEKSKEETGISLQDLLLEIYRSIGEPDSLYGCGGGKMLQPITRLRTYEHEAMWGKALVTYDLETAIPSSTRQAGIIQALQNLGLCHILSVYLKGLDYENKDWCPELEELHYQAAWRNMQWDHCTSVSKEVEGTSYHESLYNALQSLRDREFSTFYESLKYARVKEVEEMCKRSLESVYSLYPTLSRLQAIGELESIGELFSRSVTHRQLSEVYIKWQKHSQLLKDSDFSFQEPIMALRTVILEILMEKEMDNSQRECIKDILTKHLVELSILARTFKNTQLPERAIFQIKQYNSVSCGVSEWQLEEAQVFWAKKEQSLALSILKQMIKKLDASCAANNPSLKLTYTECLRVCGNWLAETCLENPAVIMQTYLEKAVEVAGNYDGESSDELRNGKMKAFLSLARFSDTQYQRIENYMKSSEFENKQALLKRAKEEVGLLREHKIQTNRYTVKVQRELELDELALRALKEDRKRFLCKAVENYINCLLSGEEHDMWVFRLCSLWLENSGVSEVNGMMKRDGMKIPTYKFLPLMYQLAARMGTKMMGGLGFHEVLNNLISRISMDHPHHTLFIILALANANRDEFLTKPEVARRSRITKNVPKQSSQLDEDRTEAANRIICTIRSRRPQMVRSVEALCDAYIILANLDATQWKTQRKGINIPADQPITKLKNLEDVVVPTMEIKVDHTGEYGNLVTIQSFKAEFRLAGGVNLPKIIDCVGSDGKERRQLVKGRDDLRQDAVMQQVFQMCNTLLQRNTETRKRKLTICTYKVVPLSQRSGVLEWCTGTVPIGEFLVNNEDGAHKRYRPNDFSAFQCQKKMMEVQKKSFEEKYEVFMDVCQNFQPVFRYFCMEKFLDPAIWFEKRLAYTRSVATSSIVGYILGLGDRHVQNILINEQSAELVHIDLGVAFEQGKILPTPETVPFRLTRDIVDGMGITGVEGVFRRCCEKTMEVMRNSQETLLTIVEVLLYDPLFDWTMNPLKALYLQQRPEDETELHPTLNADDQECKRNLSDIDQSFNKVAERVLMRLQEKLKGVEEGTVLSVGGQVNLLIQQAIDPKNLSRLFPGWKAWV

SMILES | SER2 (concentration at which the radiation sensitivity-enhancement ratio reaches 2) [1] | IC50 (ATM)
Cc1ccc(CNc2ccc3c(c2)Sc2cccc(-c4cc(N5CCOCC5)cc(=O)[nH]4)c2S3)cn1 [Example 1-12-15, 6-(7-(((6-Methylpyridin-3-yl)methyl)amino)thianthren-1-yl)-4-morpholino pyridin-2 (1H)-one] | 100 to 500 nM | < 100 nM
O=c1cc(N2CCOCC2)cc(-c2cccc3c2Sc2ccc(NCc4cccc(Cl)n4)cc2S3)[nH]1 [Example 1-12-6, 6-(7-(((6-Chloropyridin-2-yl)methyl)amino)thianthren-1-yl)-4-morpholino pyridin-2 (1H)-one] | 100 to 500 nM | < 100 nM
O=c1cc(N2CCOCC2)cc(-c2cccc3c2Sc2ccc(NCCN4CCOCC4)cc2S3)[nH]1 [Example 1-10-7, 4-Morpholino-6-(7-((2-morpholinoethyl)amino)thianthren-1-yl)pyridin-2 (1H)-one] | 100 to 500 nM | < 100 nM
N#Cc1ccnc(CNc2ccc3c(c2)Sc2cccc(-c4cc(N5CCOCC5)cc(=O)[nH]4)c2S3)c1 [Example 1-12-28, 2-(((6-(4-Morpholino-6-oxo-1,6-dihydro-pyridin-2-yl)thianthren-2-yl)amino)methyl) isonicotinonitrile] | 100 to 500 nM | < 100 nM
CNc1ncc(CNc2ccc3c(c2)Cc2cccc(-c4cc(N5CCOCC5)cc(=O)[nH]4)c2O3)cn1 [Example 2-2-16, 6-(7-(((2-(Methylamino)pyrimidin-5-yl)methyl)amino)-9H-xanthen-4-yl)-4-morpholino pyridin-2(1H)-one] | 100 to 500 nM | 100 to 500 nM
CCOc1cncc(CNc2ccc3c(c2)Cc2cccc(-c4cc(N5CCOCC5)cc(=O)[nH]4)c2O3)c1 [Example 2-2-48, 6-(7-(((5-Ethoxypyridin-3-yl)methyl)amino)-9H-xanthen-4-yl)-4-morpholino pyridin-2(1H)-one] | 500 to 2000 nM | < 100 nM
CN(C)c1ncc(CNc2ccc3c(c2)Sc2cccc(-c4cc(N5CCOCC5)cc(=O)[nH]4)c2S3)cn1 [Example 1-12-11, 6-(7-(((2-(Dimethylamino)pyrimidin-5-yl)methyl)amino)thianthren-1-yl)-4-morpholino pyridin-2(1H)-one] | 100 to 500 nM | < 100 nM
COc1cccnc1CNc1ccc2c(c1)Sc1cccc(-c3cc(N4CCOCC4)cc(=O)[nH]3)c1O2 [Example 4-4-22, 6-(8-(((3-Methoxypyridin-2-yl)methyl)amino)phenoxathiin-4-yl)-4-morpholino pyridin-2(1H)-one] | 500 to 2000 nM | < 100 nM
COC(=O)C(Nc1ccc2c(c1)Sc1cccc(-c3cc(N4CCOCC4)cc(=O)[nH]3)c1S2)c1ccc(C)cn1 (stereo not shown) [Example 1-12-108, Methyl 2-(5-methylpyridin-2-yl)-2-((6-(4-morpholino-6-oxo-1,6-dihydropyridin-2-yl)thianthren-2-yl)amino) acetate] | 100 to 500 nM | < 100 nM
CCC(CN1CCOCC1)Nc1ccc2c(c1)Sc1cccc(-c3cc(N4CCOCC4)cc(=O)[nH]3)c1S2 (stereo not shown) [Example 1-13-1, 4-Morpholino-6-(7-((1-morpholinobutan-2-yl)amino)thianthren-1-yl)pyridin-2(1H)-one] | 100 to 500 nM | < 100 nM
Cc1cc(C(C)Nc2ccc3c(c2)Sc2cccc(-c4cc(N5CCOCC5)cc(=O)[nH]4)c2S3)ncn1 (stereo not shown) [Example 1-12-75, 6-(7-((1-(6-Methylpyrimidin-4-yl)ethyl)amino)thianthren-1-yl)-4-morpholino pyridin-2 (1H)-one] | 100 to 500 nM | < 100 nM
COc1ccnc(C(C)Nc2ccc3c(c2)Cc2cccc(-c4cc(N5CCOCC5)cc(=O)[nH]4)c2O3)c1 (single isomer, unassigned) [Example 2-14-86-2, 6-(7-((1-(4-methoxypyridin-2-yl)ethyl)amino)-9H-xanthen-4-yl)-4-morpholinopyridin-2(1H)-one] | 100 to 500 nM | < 100 nM
CCC(Nc1ccc2c(c1)Sc1cccc(-c3cc(N4CCOCC4)cc(=O)[nH]3)c1S2)c1ccc(C)cn1 (stereo not shown) [Example 1-12-118, 6-(7-((1-(5-Methylpyridin-2-yl)propyl)amino)thianthren-1-yl)-4-morpholino pyridin-2(1H)-one] | 100 to 500 nM | < 100 nM
COc1cnc(C(C)Nc2ccc3c(c2)Cc2cccc(-c4cc(N5CCOCC5)cc(=O)[nH]4)c2O3)cn1 (stereo not shown) [Example 2-14-51, 6-(7-((1-(5-Methoxypyrazin-2-yl)ethyl)amino)-9H-xanthen-4-yl)-4-morpholino pyridin-2(1H)-one] | 100 to 500 nM | < 100 nM
COc1ccc(CNc2ccc3c(c2)Cc2cccc(-c4cc(N5CCOCC5)cc(=O)[nH]4)c2O3)cn1 [Example 2-2-1, 6-(7-(((6-methoxypyridin-3-yl)methyl)amino)-9H-xanthen-4-yl)-4-morpholinopyridin-2(1H)-one] | 100 to 500 nM | < 100 nM
Cc1cccc(C(CN(C)C)Nc2ccc3c(c2)Sc2cccc(-c4cc(N5CCOCC5)cc(=O)[nH]4)c2S3)n1 (stereo not shown) [Example 1-22-3, 6-(7-((2-(Dimethylamino)-1-(6-methylpyridin-2-yl)ethyl)amino)thianthren-1-yl)-4-morpholino pyridin-2 (1H)-one] | < 100 nM | < 100 nM
CC(CN1CCCCC1)Nc1ccc2c(c1)Sc1cccc(-c3cc(N4CCOCC4)cc(=O)[nH]3)c1S2 (stereo not shown) [Example 1-13-4] | 100 to 500 nM | < 100 nM
Cc1cccc(C(C)Nc2ccc3c(c2)Sc2cccc(-c4cc(N5CCOCC5)cc(=O)[nH]4)c2O3)n1 (stereo not shown) [Example 4-4-30, 6-(8-((1-(6-Methylpyridin-2-yl)ethyl)amino)phenoxathiin-4-yl)-4-morpholino pyridin-2(1H)-one] | 100 to 500 nM | < 100 nM
O=c1cc(N2CCOCC2)cc(-c2cccc3c2Oc2ccc(NCc4cc(C5CC5)ccn4)cc2C3)[nH]1 [Example 2-13-10, 6-(7-(((4-Cyclopropylpyridin-2-yl)methyl)amino)-9H-xanthen-4-yl)-4-morpholino pyridin-2(1H)-one] | 100 to 500 nM | < 100 nM
CC(Nc1ccc2c(c1)Cc1cccc(-c3cc(N4CCOCC4)cc(=O)[nH]3)c1O2)c1nccc(CF)n1 (stereo not shown) [Example 2-14-61, 6-(7-((1-(4-(Fluoromethyl)pyrimidin-2-yl)ethyl)amino)-9H-xanthen-4-yl)-4-morpholino pyridin-2(1H)-one] | < 100 nM | < 100 nM
CNCC(Nc1ccc2c(c1)Sc1cccc(-c3cc(N4CCOCC4)cc(=O)[nH]3)c1S2)c1cccc(C)n1 (stereo not shown) [Example 1-19-1, 6-(7-((2-(Methylamino)-1-(6-methylpyridin-2-yl)ethyl)amino)thianthren-1-yl)-4-morpholinopyridin-2(1H)-one] | 100 to 500 nM | < 100 nM
COc1ccnc(CNc2ccc3c(c2)Sc2cccc(-c4cc(N5CCOCC5)cc(=O)[nH]4)c2O3)c1 [Example 4-8-8, 6-(8-(((4-Methoxypyridin-2-yl)methyl)amino)phenoxathiin-4-yl)-4-morpholino pyridin-2 (1H)-one] | 100 to 500 nM | < 100 nM
COCC(CN1CC2CCC(C1)O2)Nc1ccc2c(c1)Sc1cccc(-c3cc(N4CCOCC4)cc(=O)[nH]3)c1S2 [Example 1-46-10, 6-(7-(((2S)-1-(8-Oxa-3-azabicyclo[3.2. l]octan-3-yl)-3-methoxypropan-2-yl)amino)thianthren-1-yl)-4-morpholino pyridin-2(1H)-one] | 100 to 500 nM | < 100 nM
CC(CN1CCN(c2ccccc2)CC1)Nc1ccc2c(c1)Sc1cccc(-c3cc(N4CCOCC4)cc(=O)[nH]3)c1S2 (stereo not shown) [Example 1-13-15, 4-Morpholino-6-(7-((1-(4-phenylpiperazin-1-yl)propan-2-yl)amino)thianthren-1-yl)pyridin-2 (1H)-one] | 100 to 500 nM | < 100 nM
[2H]C([2H])([2H])C(Nc1ccc2c(c1)Sc1cccc(-c3cc(N4CCOCC4)cc(=O)[nH]3)c1S2)c1cccc(F)n1 (stereo not shown) [Example 1-12-134, 4-Morpholino-6-(7-((2,2,2-trideutero-1-(6-fluoropyridin-2-yl)ethyl)amino)thianthren-1-yl) pyridin-2(1H)-one] | 100 to 500 nM | < 100 nM
Cc1cnc(C(CCN(C)C)Nc2ccc3c(c2)Sc2cccc(-c4cc(N5CCOCC5)cc(=O)[nH]4)c2S3)cn1 (single isomer, unassigned) [Example 1-22-12-1, 6-(7-((3-(dimethylamino)-1-(5-methylpyrazin-2-yl)propyl)amino)thianthren-1-yl)-4-morpholinopyridin-2(1H)-one] | 100 to 500 nM | < 100 nM
